Reference: patent US5344846A, “Compositions and methods for inhibiting deoxyhypusine synthase and the growth of cells” (The United States of America as represented by the …, priority 1992, dated 1994)
“Also recorded” adds a separate entry of the source. Read-outs that look alike come from different tables or passages of the source.

Assays:
[1] = target: T1, deoxyhypusine synthase from rat testis (Rattus norvegicus, UniProt Q6AY53); experiment: Inhibition of deoxyhypusine synthase ([3H]deoxyhypusine formation from [3H]spermidine), IC50/Ki; type: biochemical; conditions: for relative inhibitory potency (in words): comparison with parent amine, bisguanylated counterpart or another inhibitor; for Ki: competitive vs spermidine
T1 construct: as catalyzed by deoxyhypusine synthase from rat testis; from tissue; host or cells: rat testis
T1 sequence (Q6AY53 1-369): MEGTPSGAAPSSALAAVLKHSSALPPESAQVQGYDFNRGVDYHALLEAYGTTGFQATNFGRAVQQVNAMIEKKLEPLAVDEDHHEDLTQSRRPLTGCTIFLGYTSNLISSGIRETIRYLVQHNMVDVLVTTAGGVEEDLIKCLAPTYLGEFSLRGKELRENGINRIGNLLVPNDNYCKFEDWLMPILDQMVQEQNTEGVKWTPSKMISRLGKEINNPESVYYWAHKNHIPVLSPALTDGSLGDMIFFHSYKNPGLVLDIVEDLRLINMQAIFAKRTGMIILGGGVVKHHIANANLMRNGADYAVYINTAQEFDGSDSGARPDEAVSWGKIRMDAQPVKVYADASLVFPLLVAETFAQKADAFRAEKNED
Protocol: The enzyme assay was performed as previously described (see Wolff et al. (1990) J. Biol. Chem. 265:4793-4799; and Park et al. (1991) J. Biol. Chem. 266:7988-7994). A typical assay mixture included 0.2M glycine, 1 mM dithiothreitol, 0.5 mM NAD^+, 2.4 micromolar (μM) [1,8-^3 H] spermidine, 1 μM ec-eIF-5A(Lys), 25 micrograms (μg) bovine serum albumin, and 3-15 units of enzyme in a total volume of 20 microliters (μl). Incubations were carried out at pH 9.3 and 37° C. for 1 hour. […] Percent inhibition was plotted versus log inhibitor concentration in order to obtain graphic estimates of IC50 values, i.e., the concentrations inhibiting [^3 H]deoxyhypusine production by 50%. The IC50 values reported in the tables were calculated by fitting the data points to equation 1 where x=% inhibition and I is the inhibitor concentration. [formula] The nature of the inhibition was determined by plotting reciprocal velocities of [^3 H]deoxyhypusine production against reciprocals of [^3 H]spermidine concentrations at a constant fixed level of ec-eIF-5A(Lys) (1 μM) and at set inhibitor concentrations. […] Estimates of Ki values were made by fitting the data to equation 2; wherein v is the velocity of the reaction, V is the maximum velocity, S is the substrate concentration, Km is Michaeli's constant, Ki is the inhibition constant, and I is the inhibitor concentration. [formula] All fits were performed by means of an interactive curve-fitting program, MLAB, developed and modified at the National Institutes of Health to run on an IBM personal computer.

[2] = cited from earlier work
deoxyhypusine synthase = target: T2, deoxyhypusine synthase (Rattus norvegicus, UniProt Q6AY53); conditions: earlier publications, cited from earlier work
T2 construct: full-length homotetramer; substrate was human eIF-5A precursor expressed in E. coli
T2 sequence (Q6AY53 1-369): T1 sequence (Q6AY53 1-369)

[3] = pH 9.3, 37° C., 1 hour, 2.4 μM [3H]spermidine

N=C(N)NCCCNCCCNC(=N)N [Compound 45, N^1,N^7 -bisguanyl caldine]
relative inhibitory potency (in words) [1]: inhibition not widely different from its parent amine | inhibition of deoxyhypusine synthase (in words) [1, 3]: somewhat reduced inhibition | increase in IC50 by bisguanylation ([1]; vs parent caldine (45 vs 9)): 5 fold

CCCCCCCCN [Compound 13]
inhibition of deoxyhypusine synthase (in words) [1, 3]: does not appear to interact to any significant extent

NCCCN[C@H]1CC[C@@H](N)CC1 [Compound 32, N-(3-aminopropyl)-1,4-diaminocyclohexane]
inhibition of deoxyhypusine synthase (in words) [1, 3]: failure to inhibit the enzyme

NCCCCCN [Compound 4, cadaverine]
inhibition of deoxyhypusine synthase (in words) [1, 3]: does not

NCCCNCCCON [Compound 39, N-(3-aminooxypropyl)-1,3-diaminopropane]
pKa of aminooxy group ([2]; aminooxy group): 4.5-5.0 | inhibition of deoxyhypusine synthase (in words) [1, 3]: without effect; also recorded: does not function as an inhibitor

NCCCC[C@H](N)C(=O)O [free lysine, lysine]
substrate or cofactor function for deoxyhypusine synthase (deoxyhypusine synthase): Neither free lysine nor synthetic 9- or 16-member peptides modeled on the amino acid sequence encompassing the lysine residue in eIF-5A precursors that undergoes modification to hypusine, function as substrates

NC(=O)c1ccc[n+]([C@@H]2O[C@H](COP(=O)([O-])OP(=O)(O)OC[C@H]3O[C@@H](n4cnc5c(N)ncnc54)[C@H](OP(=O)(O)O)[C@@H]3O)[C@@H](O)[C@H]2O)c1 [NADP^+]
substrate or cofactor function for deoxyhypusine synthase (deoxyhypusine synthase): negligible

CC(C)(CCCN)NCCCN [Compound 34, 5,5-dimethylspermidine]
inhibition of deoxyhypusine synthase (in words) [1, 3]: abolished inhibition; also recorded: failure to inhibit the enzyme

NC(=O)C1=CN([C@@H]2O[C@H](COP(=O)(O)OP(=O)(O)OC[C@H]3O[C@@H](n4cnc5c(N)ncnc54)[C@H](O)[C@@H]3O)[C@@H](O)[C@H]2O)C=CC1 [NADH]
substrate or cofactor function for deoxyhypusine synthase (deoxyhypusine synthase): negligible

N=C(N)NCCCCCCCN [Compound 49, N^1-guanyl-1,7-diaminoheptane]
relative inhibitory potency (in words) [1]: far exceeding the parent amines, as well as their bisguanylated counterparts, in inhibitory potency; also recorded: strongest inhibition of the compounds tested; also recorded: uniformly more efficient inhibition | Ki [1]: 9.7 nM | inhibition of deoxyhypusine synthase (in words) [1, 3]: excellent inhibitors | Ki, fold less than the apparent Km for spermidine ([1]; vs apparent Km for spermidine (4.5±0.7 μM)): about 450 fold

N=C(N)NCCCCCCNC(=N)N [Compound 41, N^1,N^6-bisguanyl-1,6-diaminohexane]
relative inhibitory potency (in words) [1]: inhibition not widely different from its parent amine | inhibition of deoxyhypusine synthase (in words) [1, 3]: acted as inhibitors of deoxyhypusine synthase

NCCCNCCCCNCCCN [Compound 12, spermine]
inhibition of deoxyhypusine synthase (in words) ([1]; pH 9.3): failure

NCCCCCCCCN [Compound 7, 1,8-diaminooctane]
inhibition of deoxyhypusine synthase (in words) [1, 3]: strong inhibition

NCCCN1CCC(CN)CC1 [Compound 31, 1-(3-Aminopropyl)-4-aminomethylpiperidine]
inhibition of deoxyhypusine synthase (in words) [1, 3]: failure to inhibit the enzyme

altered eIF-5A precursor protein, in which Lys^50 is replaced by Arg: altered eIF-5A precursor protein, in which Lys^50 is replaced by Arg
substrate or cofactor function for deoxyhypusine synthase (deoxyhypusine synthase): is not

N=C(N)NCCCNC(=N)N [Compound 44, N^1,N^3-bisguanyl-1,3-diaminopropane]
inhibition of deoxyhypusine synthase (in words) [1, 3]: without inhibitory property; also recorded: no inhibition was detected

c1ccc(CNCCCCCCCCNCc2ccccc2)cc1 [Compound 25, N,N'-bis-benzyl-1,8-diaminooctane]
inhibition of deoxyhypusine synthase (in words) [1, 3]: loss in binding

NCCCCCNCCCN [Compound 11, N-(3-aminopropyl)cadaverine]
substrate or cofactor function for deoxyhypusine synthase (deoxyhypusine synthase; listed as N-(3-aminopropyl)cadaverine): function as a substrate for deoxyhypusine synthase, albeit a poor one; also recorded: acts as a substrate | substrate or cofactor function for deoxyhypusine synthase (deoxyhypusine synthase; listed as compound 11): functions as a substrate, albeit a poor one | inhibition of deoxyhypusine synthase (in words) [1, 3]: some degree of inhibition

NCCCCCCCN [Compound 6, 1,7-diaminoheptane]
inhibition of deoxyhypusine synthase (in words) [1, 3]: strong inhibition

NCCCN [Compound 2, 1,3-diaminopropane]
inhibition of deoxyhypusine synthase (in words) ([1]; pH 9.3, 37° C., 1 hour, 2.4 μM [3H]spermidine, listed as 1,3-diaminopropane): inhibit | inhibition of deoxyhypusine synthase (in words) ([1]; pH 9.3, 37° C., 1 hour, 2.4 μM [3H]spermidine, listed as compound 2): exerts product inhibition; also recorded: inhibit the enzyme | type of inhibition (kinetics) ([1]; varied [3H]spermidine, ec-eIF-5A(Lys) fixed at 1 μM): competitive

CC(N)CCNCCCCN (stereo not shown) [Compound 35, 1-Methyl spermidine]
inhibition of deoxyhypusine synthase (in words) [1, 3]: Some degree of inhibition

CN(CCCN)CCCN [Compound 30, N^4 -methylcaldine]
inhibition of deoxyhypusine synthase (in words) [1, 3]: devoid of inhibitory activity; also recorded: do not interact with the active site of the enzyme

N=C(N)NCCCCCCCCN [Compound 50, N^1-guanyl-1,8-diaminooctane]
relative inhibitory potency (in words) [1]: far exceeding the parent amines, as well as their bisguanylated counterparts, in inhibitory potency; also recorded: uniformly more efficient inhibition | inhibition of deoxyhypusine synthase (in words) [1, 3]: excellent inhibitors

N=C(N)NCCCCCCCCNC(=N)N [Compound 43, N^1,N^8-bisguanyl-1,8-diaminooctane]
relative inhibitory potency (in words) [1]: somewhat stronger an inhibitor than guazatine (compound 40), showed no better inhibition than the parent diamine, 1,8-diaminooctane (compound 7); also recorded: inhibition not widely different from its parent amine | inhibition of deoxyhypusine synthase (in words) [1, 3]: acted as inhibitors of deoxyhypusine synthase

N=C(N)NCCCCCCCNC(=N)N [Compound 42, N^1,N^7-bisguanyl-1,7-diaminoheptane]
relative inhibitory potency (in words) [1]: inhibition not widely different from its parent amine | Ki [1]: 1200 nM | inhibition of deoxyhypusine synthase (in words) [1, 3]: acted as inhibitors of deoxyhypusine synthase

N=C(N)NCCCN [Compound 46, N^1-guanyl-1,3-diaminopropane]
inhibition of deoxyhypusine synthase (in words) [1, 3]: without inhibitory property; also recorded: no inhibition was detected

N=C(N)NCCCCN [Compound 47, agmatine]
inhibition of deoxyhypusine synthase (in words) [1, 3]: moderate degree of inhibition; also recorded: mild degree of inhibition

NCCCNCCCN [Compound 9, caldine]
substrate or cofactor function for deoxyhypusine synthase (deoxyhypusine synthase; listed as caldine): no detectable substrate property | substrate or cofactor function for deoxyhypusine synthase (deoxyhypusine synthase; listed as compound 9): fails to serve as a substrate | inhibition of deoxyhypusine synthase (in words) ([1]; pH 9.3): some degree of inhibition

N=C(N)NCCCNCCCN [Compound 48, N^1 -guanylcaldine]
relative inhibitory potency (in words) [1]: far exceeding the parent amines, as well as their bisguanylated counterparts, in inhibitory potency; also recorded: uniformly more efficient inhibition | inhibition of deoxyhypusine synthase (in words) [1, 3]: excellent inhibitors

NCCCCNCCCN [Compound 10, spermidine]
pKa of N1-amino group ([2]; N1-amino group): 9.94 | pKa of N8-amino group ([2]; N8-amino group): 10.81

NCCCCCCN [Compound 5, 1,6-diaminohexane]
inhibition of deoxyhypusine synthase (in words) [1, 3]: displays inhibition

NCCCCN [Compound 3, putrescine]
inhibition of deoxyhypusine synthase (in words) ([1]; pH 9.3): inhibit the enzyme

NCCCN[C@H]1CC[C@H](N)CC1 [Compound 33, N-(3-aminopropyl)-1,4-diaminocyclohexane]
inhibition of deoxyhypusine synthase (in words) [1, 3]: failure to inhibit the enzyme
